Measured values: patent US20240336897A1, “COMPOSITIONS AND METHODS FOR CELL REPROGRAMMING” (CORNELL UNIVERSITY, priority 2021, published 2024)

How the values were obtained:
biPSCs [1] = test: Base medium lacking individual inhibitors for GSK3β, MEK1/2 or TGFβ/activin/nodal; details: GMTi base medium lacking this inhibitor
Experimental: (§1) The biPSC colonies emerging from reprogramming trials were manually picked, dissociated into single cells using TrypLE™ (ThermoFisher) and plated on iMEFs in GMTi medium. For passaging, confluent cultures of biPSCs were rinsed once with PBS and incubated with TrypLE for 5 minutes. Cells were then collected in fibroblast medium, and centrifuged at 200×rcf for 5 minutes. The pellet was then resuspended in GMTi medium for plating on iMEFs. Passaging of biPSCs was performed repeatedly (every 3-4 days), with concurrent examination and imaging of morphology, growth characteristics and expression of PSC markers. […] Base medium conditions lacking individual inhibitors for GSK3β, MEK1/2 or TGFβ/activin/nodal were also prepared and tested for their ability to sustain pluripotent cultures. All cultures were maintained in a humidified incubator at 37° C. under an atmosphere of 5% CO2.

biPSCs [2] = details: MEK1/2 and GSK3B inhibitors used together; cited from earlier work
biPSCs [3] = test: Sustenance of biPSCs using specific pathway inhibition (GMTi medium): repeated passaging, morphology; details: at least over a few passages, cell morphology
Experimental: as §1

In the case of `Cc1cccc(-c2nn(C(=S)Nc3ccccc3)cc2-c2ccnc3ccccc23)n1` [A83-01], the “effect of removing the single inhibitor from biPSC cultures” value (biPSCs [1]) is reported as “resulted in differentiation”.

In the case of `Cc1c[nH]c(-c2cnc(NCCNc3ccc(C#N)cn3)nc2-c2ccc(Cl)cc2Cl)n1` [CHIR99021], the “effect on biPSCs” value (biPSCs [2]) is given as “suspend biPSCs in a pluripotent state, but without the ability to proliferate” and the “effect of removing the single inhibitor from biPSC cultures” value (biPSCs [1]) is given as “resulted in differentiation”.

In the case of `O=C(NOC[C@H](O)CO)c1ccc(F)c(F)c1Nc1ccc(I)cc1F` [PD0325901], the “effect on biPSCs” value (biPSCs [2]) is listed as “suspend biPSCs in a pluripotent state, but without the ability to proliferate”.

In the case of “IL6: interleukin 6, leukemia inhibitory factor family member”, the “effect of excluding the factor from the GMTi medium on biPSCs” value (biPSCs [3]) is reported as “did not negatively affect biPSCs”.

In the case of LIF: human leukemia inhibitory factor, the “effect of excluding the factor from the GMTi medium on biPSCs” value (biPSCs [3]) is reported as “did not negatively affect biPSCs”.
